The text below walks through data of US11274098B2, “Tricyclic compounds for use in treatment of proliferative disorders” (ARGONAUT THERAPEUTICS LIMITED, priority 2017, dated 2022).

Each structure is given as a SMILES string.

The test deals with human PRMT5/MEP50 (Homo sapiens (Human), UniProt O14744). Description: PRMT5 chemiluminescent assay. In kind it is biochemical. The settings on record: human PRMT5/MEP50 expressed in HEK293 cells; biotinylated histone peptide substrate; 60 min reaction; chemiluminescent readout. The method, then:
A PRMT5 chemiluminescent assay was used to measure the […] activity of PRMT5. Biotinylated histone peptides were synthesized and attached to 384-well plates. Compound serial dilutions were performed and added to the assay plate. Histone H4 monomethyl R^3 antibody was obtained from Abcam. A master mix for each well was prepared and human PRMT5/MEP50 (expressed in HEK293 cells) diluted in assay buffer to a concentration of 5 ng/μL. The reaction was incubated and slowly rotated for 60 minutes at the point of PRMT5/MEP50 addition. The supernatant from the wells was removed and blocking buffer was added to each well and rotated for 10 minutes. The primary antibody was diluted and added to every well for 60 minutes, before it was removed and the wells washed. The horse radish peroxidase (HRP)-coupled secondary antibody was diluted and added to each well with an incubation time of 30 minutes. The HRP chemiluminescent substrate was added to every well. The plate was read on a Flourstar Omega BMG Labtech instrument (Ortenberg, Germany) and the analysis of IC50 was performed using the Flourstar Omega BMG Labtech software.

human PRMT5/MEP50, sequence (O14744 whole entry): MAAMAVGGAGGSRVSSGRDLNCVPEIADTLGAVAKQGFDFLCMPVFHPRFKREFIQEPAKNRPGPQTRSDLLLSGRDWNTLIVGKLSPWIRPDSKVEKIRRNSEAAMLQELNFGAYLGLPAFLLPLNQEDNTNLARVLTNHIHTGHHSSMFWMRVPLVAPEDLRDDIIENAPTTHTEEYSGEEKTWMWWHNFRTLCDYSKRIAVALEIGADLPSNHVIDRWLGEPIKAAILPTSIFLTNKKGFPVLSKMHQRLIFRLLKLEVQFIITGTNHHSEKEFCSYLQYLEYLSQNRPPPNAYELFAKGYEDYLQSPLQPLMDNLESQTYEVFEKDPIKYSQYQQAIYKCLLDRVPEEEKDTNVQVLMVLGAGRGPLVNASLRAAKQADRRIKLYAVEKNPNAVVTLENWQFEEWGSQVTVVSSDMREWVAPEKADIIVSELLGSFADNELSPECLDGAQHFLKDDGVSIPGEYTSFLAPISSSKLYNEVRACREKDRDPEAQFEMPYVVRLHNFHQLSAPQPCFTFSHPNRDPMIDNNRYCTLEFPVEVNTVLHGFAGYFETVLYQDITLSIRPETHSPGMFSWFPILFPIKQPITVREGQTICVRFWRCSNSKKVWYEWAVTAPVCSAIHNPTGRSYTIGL
human PRMT5/MEP50, sequence (Q9BQA1 whole entry partner): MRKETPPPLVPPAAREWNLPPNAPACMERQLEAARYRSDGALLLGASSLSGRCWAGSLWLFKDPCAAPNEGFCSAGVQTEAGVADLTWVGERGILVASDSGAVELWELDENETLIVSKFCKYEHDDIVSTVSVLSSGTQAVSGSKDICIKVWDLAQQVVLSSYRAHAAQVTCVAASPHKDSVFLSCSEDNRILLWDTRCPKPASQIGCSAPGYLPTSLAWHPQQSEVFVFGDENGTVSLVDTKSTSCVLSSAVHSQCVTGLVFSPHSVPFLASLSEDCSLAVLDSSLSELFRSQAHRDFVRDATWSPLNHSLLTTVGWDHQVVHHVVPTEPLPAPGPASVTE

`O=C(NCC(O)CN1CCc2c([nH]c3ccccc23)C1)N1CCc2ccccc2C1` (stereo not drawn) [Example 22, N-(2-hydroxy-3-(1,3,4,9-tetrahydro-2H-pyrido[3,4-b]indol-2-yl)propyl)-3,4-dihydroisoquinoline-2(1H)-carboxamide] showed a half-inhibitory concentration (IC50) of 21000 nM.
`CN1CCN(c2cc(C(=O)NCC(O)CN3CCc4c(n(C)c5ccccc45)C3)cc(NC3CCC3)n2)CC1` (stereo not drawn) [Example 16, 2-(cyclobutylamino)-N-(2-hydroxy-3-{9-methyl-1H,2H,3H,4H,9H-pyrido[3,4-b]indol-2-yl}propyl)-6-(4-methylpiperazin-1-yl)pyridine-4-carboxamide] displayed an IC50 of 286 nM.
Compound `CN1CCN(c2nc(NC3CCC3)cc(C(=O)NCC(O)CN3CCc4c(c5ccccc5n4C)C3)n2)CC1` (stereo not drawn) [Example 6, 6-(cyclobutylamino)-N-(2-hydroxy-3-{5-methyl-1H,2H,3H,4H,5H-pyrido[4,3-b]indol-2-yl}propyl)-2-(4-methylpiperazin-1-yl)pyrimidine-4-carboxamide] returned an IC50 of 108 nM.
The compound `CC(=O)N1CCC(Nc2cc(C(=O)NC[C@H](O)CN3CCc4c([nH]c5ccccc45)C3)ncn2)CC1` [Example 26, (S)-6-((1-acetylpiperidin-4-yl)amino)-N-(2-hydroxy-3-(1,3,4,9-tetrahydro-2H-pyrido [3,4-b]indol-2-yl)propyl)pyrimidine-4-carboxamide] had an IC50 of 10 nM.
As to `O=C(NCC(O)CN1CCc2c([nH]c3ccccc23)C1)N1CCC(c2ccccc2)C1` (stereo not drawn) [Example 23, N-(2-hydroxy-3-(1,3,4,9-tetrahydro-2H-pyrido[3,4-b]indol-2-yl)propyl)-3-phenyl pyrrolidine-1-carboxamide], inhibition was half-maximal at 75700 nM (IC50).
Under `CC(=O)N1CCC(Nc2cc(C(=O)NCC(O)CN3CCc4[nH]c5ccccc5c4C3)ncn2)CC1` (stereo not drawn) [Example 4, 6-[(1-acetylpiperidin-4-yl)amino]-N-(2-hydroxy-3-{1H,2H,3H,4H,5H-pyrido[4,3-b]indol-2-yl}propyl)pyrimidine-4-carboxamide] stands 542 nM; under `O=C(NCC(O)CN1CCc2c([nH]c3ccccc23)C1)c1ccc(C(=O)N2C3CCC2COC3)cc1` (stereo not drawn) [Example 14, N-(2-hydroxy-3-{1H,2H,3H,4H,9H-pyrido[3,4-b]indol-2-yl}propyl)-4-({3-oxa-8-azabicyclo[3.2.1]octan-8-yl}carbonyl)benzamide], 1630 nM; under `O=C(NCC(O)CN1CCc2c([nH]c3ccccc23)C1)c1ccc(C(=O)N2CCOCC2)cc1` (stereo not drawn) [Example 13, N-(2-hydroxy-3-{1H,2H,3H,4H,9H-pyrido[3,4-b]indol-2-yl}propyl)-4-[(morpholin-4-yl)carbonyl]benzamide], 2040 nM.
Under `CN1CCN(c2cc(C(=O)NCC(O)CN3CCc4c([nH]c5ccccc45)C3)cc(NC3CCC3)n2)CC1` (stereo not drawn) [Example 10, 2-(cyclobutylamino)-N-(2-hydroxy-3-{1H,2H,3H,4H,9H-pyrido[3,4-b]indol-2-yl}propyl)-6-(4-methylpiperazin-1-yl)pyridine-4-carboxamide] stands 67 nM; under `CC(=O)N1CCC(Nc2cc(C(=O)NCC(O)CN3CCn4c(cc5ccccc54)C3)ncn2)CC1` (stereo not drawn) [Example 28, 6-((1-acetylpiperidin-4-yl)amino)-N-(3-(3,4-dihydropyrazino[1,2-a]indol-2(1H)-yl)-2-hydroxypropyl)pyrimidine-4-carboxamide], 45 nM; under `CC(=O)N1CCC(Nc2cc(C(=O)NCCCN3CCc4c([nH]c5ccccc45)C3)ncn2)CC1` [Example 25, 6-((1-acetylpiperidin-4-yl)amino)-N-(3-(1,3,4,9-tetrahydro-2H-pyrido[3,4-b]indol-2-yl)propyl)pyrimidine-4-carboxamide], 99 nM.
Take `CN1CCN(c2nc(NC3CCC3)cc(C(=O)NCC(O)CN3CCc4c(n(C)c5ccccc45)C3)n2)CC1` (stereo not drawn) [Example 15, 6-(cyclobutylamino)-N-(2-hydroxy-3-{9-methyl-1H,2H,3H,4H,9H-pyrido[3,4-b]indol-2-yl}propyl)-2-(4-methylpiperazin-1-yl)pyrimidine-4-carboxamide]: inhibition was half-maximal at 477 nM (IC50).
On to `CC(=O)N1CCC(Nc2cc(C(=O)NCC(O)CN3CCc4c([nH]c5ccccc45)C3)ncn2)CC1` (stereo not drawn) [Example 12, 6-[(1-acetylpiperidin-4-yl)amino]-N-(2-hydroxy-3-{1H,2H,3H,4H,9H-pyrido[3,4-b]indol-2-yl}propyl)pyrimidine-4-carboxamide], for which it took 86 nM to reach half-maximal inhibition (IC50).
Under `CN1CCN(c2cc(C(=O)NCC(O)CN3CCc4[nH]c5ccccc5c4C3)cc(NC3CCC3)n2)CC1` (stereo not drawn) [Example 2, 2-(cyclobutylamino)-N-(2-hydroxy-3-{1H,2H,3H,4H,5H-pyrido[4,3-b]indol-2-yl}propyl)-6-(4-methylpiperazin-1-yl)pyridine-4-carboxamide] stands 771 nM; under `CC(=O)N1CCC(Nc2cc(C(=O)NC[C@@H](O)CN3CCc4c([nH]c5ccccc45)C3)ncn2)CC1` [Example 27, (R)-6-((1-acetylpiperidin-4-yl)amino)-N-(2-hydroxy-3-(1,3,4,9-tetrahydro-2H-pyrido [3,4-b]indol-2-yl)propyl)pyrimidine-4-carboxamide], 158 nM.
In turn, `CC(=O)N1CCC(Nc2cc(C(=O)NCC(O)CN3CCc4c(n(C)c5ccccc45)C3)ncn2)CC1` (stereo not drawn) [Example 18, 6-[(1-acetylpiperidin-4-yl)amino]-N-(2-hydroxy-3-{9-methyl-1H,2H,3H,4H,9H-pyrido[3,4-b]indol-2-yl}propyl)pyrimidine-4-carboxamide] yielded an IC50 of 2050 nM.
As for `O=C(OCC(O)CN1CCc2c([nH]c3ccccc23)C1)N1CCC(c2ccccc2)C1` (stereo not drawn) [Example 20, 2-hydroxy-3-(1,3,4,9-tetrahydro-2H-pyrido[3,4-b]indol-2-yl)propyl 3-phenylpyrrolidine-1-carboxylate], the figure is 10500 nM.
With `CN1CCN(c2nc(NC3CCC3)cc(C(=O)NCC(O)CN3CCc4c([nH]c5ccccc45)C3)n2)CC1` (stereo not drawn) [Example 9, 6-(cyclobutylamino)-N-(2-hydroxy-3-{1H,2H,3H,4H,9H-pyrido[3,4-b]indol-2-yl}propyl)-2-(4-methylpiperazin-1-yl)pyrimidine-4-carboxamide], the IC50 came to 148 nM.
Under `O=C(OCC(O)CN1CCc2c([nH]c3ccccc23)C1)N1CCc2ccccc2C1` (stereo not drawn) [Example 21, 2-Hydroxy-3-(1,3,4,9-tetrahydro-2H-pyrido[3,4-b]indol-2-yl)propyl 3,4-dihydroisoquinoline-2(1H)-carboxylate] stands 6190 nM; under `Cn1c2c(c3ccccc31)CCN(CC(O)CNC(=O)c1ccc(C(=O)N3C4CCC3COC4)cc1)C2` (stereo not drawn) [Example 19, N-(2-hydroxy-3-{9-methyl-1H,2H,3H,4H,9H-pyrido[3,4-b]indol-2-yl}propyl)-4-({3-oxa-8-azabicyclo[3.2.1]octan-8-yl}carbonyl)benzamide], 26900 nM; under `O=C(NCC(O)CN1CCc2c([nH]c3ccccc23)C1)c1cc(NC2CCC2)ncn1` (stereo not drawn) [Example 11, 6-(Cyclobutylamino)-N-(2-hydroxy-3-{1H,2H,3H,4H,9H-pyrido[3,4-b]indol-2-yl}propyl)pyrimidine-4-carboxamide], 459 nM.
As for `Cn1c2c(c3ccccc31)CCN(CC(O)CNC(=O)c1cc(NC3CCC3)ncn1)C2` (stereo not drawn) [Example 17, 6-(cyclobutylamino)-N-(2-hydroxy-3-{9-methyl-1H,2H,3H,4H,9H-pyrido[3,4-b]indol-2-yl}propyl)pyrimidine-4-carboxamide], the figure is 8040 nM; as for `O=C(NCC(O)CN1CCc2c([nH]c3ccccc23)C1)N1CCCC(c2ccccc2)C1` (stereo not drawn) [Example 24, N-(2-hydroxy-3-(1,3,4,9-tetrahydro-2H-pyrido[3,4-b]indol-2-yl)propyl)-3-phenylpiperidine-1-carboxamide], 53700 nM.
With `CN1CCN(c2cc(C(=O)NCC(O)CN3CCc4c(c5ccccc5n4C)C3)cc(NC3CCC3)n2)CC1` (stereo not drawn) [Example 7, 2-(cyclobutylamino)-N-(2-hydroxy-3-{5-methyl-1H,2H,3H,4H,5H-pyrido[4,3-b]indol-2-yl}propyl)-6-(4-methylpiperazin-1-yl)pyridine-4-carboxamide], the concentration for half-maximal inhibition (IC50) is 322 nM. Against the preceding compound, the IC50 is about 170-fold lower.

The term IC50 denotes the concentration at which inhibition is half-maximal. Low readings indicate greater potency in that assay, high ones weaker potency in that assay.
